Experimental data from US20260284044A1, “PHARMACEUTICAL COMPOSITIONS OF VARENICLINE AND PROCESS THEREOF” (TENSHI KAIZEN L PRIVATE LIMITED, priority 2023, published 2026).

Columns and labels:
[1] = N-nitroso varenicline content of API and tablets, initial and on stability storage; type: physicochemical
[2] = FDA, cited from earlier work

Molecule | Results (nitroso varenicline) ([1]; Batch API (EL-01-A179-2001003), limit NMT 18.5 ppm) | Initial (ppm) (N-nitroso varenicline) ([1]; Orally disintegrating tablets 1 mg and API, initial data) | Intake limit considered reasonably safe for humans ([2]; based on lifetime exposure) | Interim acceptable intake limit ([2]; interim limit for distribution in the US)
(2R,3R)-2,3-dihydroxybutanedioic acid;5,8,14-triazatetracyclo [10.3.1.02,11.04,9]hexadeca-2,4,6,8,10-pentaene [Varenicline API] | Less than 2 ppm | 1.73 ppm |  | 
O=NN1CC2CC(C1)c1cc3nccnc3cc12 [N-nitroso-varenicline] |  |  | 37 nanograms per day | ≤ 185 ng per day
